What was measured:
[1] = target: MAP kinase-interacting serine/threonine-protein kinase 1 (Homo sapiens) (UniProt Q9BUB5); experiment: Inhibition of recombinant full length human GST-tagged MKNK1 expressed in insect expression system at 0.1 uM using serine/threonine-7 peptide as substrate incubated for 60 mins by Z'-LYTE assay relative to control
[2] = target: Death-associated protein kinase 1 (Homo sapiens) (UniProt P53355); experiment: Inhibition of recombinant human GST-tagged DAPK1 catalytic domain (1 to 363 residues) expressed in baculovirus expression system at 0.1 uM using ZIPtide peptide as substrate incubated for 60 mins by Adapta assay relative to control
[3] = target: G protein-coupled receptor kinase 6 (Homo sapiens) (UniProt P43250); experiment: Inhibition of recombinant full length human GST-tagged GRK6 expressed in baculovirus expression system at 0.1 uM using serine/threonine-16 peptide as substrate incubated for 60 mins by Z'-LYTE assay relative to control
[4] = target: Tyrosine-protein kinase Srms (Homo sapiens) (UniProt Q9H3Y6); experiment: Inhibition of recombinant full length human GST-tagged SRM expressed in baculovirus expression system at 0.1 uM using tyrosine-1 peptide as substrate incubated for 60 mins by Z'-LYTE assay relative to control
[5] = target: Testis-specific serine/threonine-protein kinase 1 (Homo sapiens) (UniProt Q9BXA7); experiment: Inhibition of recombinant full length human His-tagged TSSK1 expressed in baculovirus expression system at 0.1 uM using serine/threonine-4 peptide as substrate incubated for 60 mins by Z'-LYTE assay relative to control
[6] = target: Serine/threonine-protein kinase TAO2 (Homo sapiens) (UniProt Q9UL54); experiment: Inhibition of recombinant human GST-tagged TAO2 catalytic domain (1 to 314 residues) expressed in baculovirus expression system at 0.1 uM using serine/threonine-7 peptide as substrate incubated for 60 mins by Z'-LYTE assay relative to control
Chain of Serine/threonine-protein kinase TAO2 (Homo sapiens) (Q9UL54 whole entry, the tested form may be a part): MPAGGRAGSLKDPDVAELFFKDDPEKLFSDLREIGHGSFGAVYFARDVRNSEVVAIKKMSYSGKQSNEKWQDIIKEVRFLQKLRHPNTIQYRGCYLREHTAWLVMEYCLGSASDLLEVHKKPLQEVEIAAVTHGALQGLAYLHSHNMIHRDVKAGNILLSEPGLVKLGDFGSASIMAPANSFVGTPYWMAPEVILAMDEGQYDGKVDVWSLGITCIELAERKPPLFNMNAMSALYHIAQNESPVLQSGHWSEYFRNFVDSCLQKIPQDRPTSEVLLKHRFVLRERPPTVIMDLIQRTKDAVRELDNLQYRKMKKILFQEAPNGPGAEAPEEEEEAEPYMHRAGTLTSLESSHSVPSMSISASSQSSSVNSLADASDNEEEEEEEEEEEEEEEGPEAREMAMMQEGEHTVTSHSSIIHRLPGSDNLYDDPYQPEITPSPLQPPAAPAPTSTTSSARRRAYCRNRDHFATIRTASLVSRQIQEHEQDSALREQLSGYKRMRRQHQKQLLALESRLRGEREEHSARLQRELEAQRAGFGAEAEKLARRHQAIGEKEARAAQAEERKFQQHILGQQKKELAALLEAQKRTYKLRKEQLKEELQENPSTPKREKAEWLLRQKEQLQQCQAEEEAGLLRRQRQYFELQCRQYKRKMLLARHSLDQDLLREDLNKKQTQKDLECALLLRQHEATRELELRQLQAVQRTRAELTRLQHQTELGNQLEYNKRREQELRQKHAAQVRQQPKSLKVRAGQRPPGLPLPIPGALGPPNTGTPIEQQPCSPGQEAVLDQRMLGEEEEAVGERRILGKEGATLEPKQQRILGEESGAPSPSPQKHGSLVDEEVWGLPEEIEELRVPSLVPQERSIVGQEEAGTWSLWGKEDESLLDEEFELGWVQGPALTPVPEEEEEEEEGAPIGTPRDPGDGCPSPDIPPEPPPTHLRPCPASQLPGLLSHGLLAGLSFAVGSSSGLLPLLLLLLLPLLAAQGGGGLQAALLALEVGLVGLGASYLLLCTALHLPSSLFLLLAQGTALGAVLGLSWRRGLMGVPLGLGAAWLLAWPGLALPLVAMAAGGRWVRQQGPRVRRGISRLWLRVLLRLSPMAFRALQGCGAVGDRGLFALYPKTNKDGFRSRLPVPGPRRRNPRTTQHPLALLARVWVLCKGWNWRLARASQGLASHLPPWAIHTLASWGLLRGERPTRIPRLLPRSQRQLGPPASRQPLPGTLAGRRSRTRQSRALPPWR

[7] = target: Receptor-type tyrosine-protein kinase FLT3 (Homo sapiens) (UniProt P36888); experiment: Inhibition of recombinant human His-tagged FLT3 catalytic domain (564 to 958 residues) expressed in baculovirus expression system at 0.1 uM using tyrosine-2 peptide as substrate incubated for 60 mins by Z'-LYTE assay relative to control
[8] = target: Ribosomal protein S6 kinase alpha-5 (Homo sapiens) (UniProt O75582); experiment: Inhibition of recombinant full length human GST-tagged MSK1 expressed in baculovirus expression system at 0.1 uM using serine/threonine-1 peptide as substrate incubated for 60 mins by Z'-LYTE assay relative to control
[9] = target: Serine/threonine-protein kinase 16 (Homo sapiens) (UniProt O75716); experiment: Inhibition of tracer 236 binding to recombinant full length human His-tagged STK16 expressed in baculovirus expression system at 0.1 uM measured after 60 mins by Lanthascreen assay relative to control
Chain of Serine/threonine-protein kinase 16 (Homo sapiens) (O75716 whole entry): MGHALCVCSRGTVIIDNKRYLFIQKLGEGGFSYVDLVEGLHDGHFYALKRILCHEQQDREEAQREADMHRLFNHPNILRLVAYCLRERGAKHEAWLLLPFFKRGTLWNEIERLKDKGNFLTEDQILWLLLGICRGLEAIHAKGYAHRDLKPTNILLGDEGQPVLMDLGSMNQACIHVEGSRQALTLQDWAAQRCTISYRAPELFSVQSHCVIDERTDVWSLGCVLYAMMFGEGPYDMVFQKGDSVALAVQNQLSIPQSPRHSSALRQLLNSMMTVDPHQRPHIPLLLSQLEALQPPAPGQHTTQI

[10] = target: Serine/threonine-protein kinase B-raf (Homo sapiens) (UniProt P15056); experiment: Inhibition of recombinant full length human GST-tagged BRAF expressed in baculovirus expression system at 0.1 uM using serine/threonine-3 peptide as substrate incubated for 60 mins by Z'-LYTE assay relative to control
[11] = target: Tyrosine-protein kinase ZAP-70 (Homo sapiens) (UniProt P43403); experiment: Inhibition of recombinant full length human His-tagged ZAP70 expressed in baculovirus expression system at 0.1 uM using tyrosine-7 peptide as substrate incubated for 60 mins by Z'-LYTE assay relative to control
[12] = target: Fibroblast growth factor receptor 4 (Homo sapiens) (UniProt P22455); experiment: Inhibition of recombinant human His-tagged FGFR4 catalytic domain ([…]) expressed in baculovirus expression system at 0.1 uM using tyrosine-4 peptide as substrate incubated for 60 mins by Z'-LYTE assay relative to control
Chain of Fibroblast growth factor receptor 4 (Homo sapiens) (P22455 22-802 limits assumed): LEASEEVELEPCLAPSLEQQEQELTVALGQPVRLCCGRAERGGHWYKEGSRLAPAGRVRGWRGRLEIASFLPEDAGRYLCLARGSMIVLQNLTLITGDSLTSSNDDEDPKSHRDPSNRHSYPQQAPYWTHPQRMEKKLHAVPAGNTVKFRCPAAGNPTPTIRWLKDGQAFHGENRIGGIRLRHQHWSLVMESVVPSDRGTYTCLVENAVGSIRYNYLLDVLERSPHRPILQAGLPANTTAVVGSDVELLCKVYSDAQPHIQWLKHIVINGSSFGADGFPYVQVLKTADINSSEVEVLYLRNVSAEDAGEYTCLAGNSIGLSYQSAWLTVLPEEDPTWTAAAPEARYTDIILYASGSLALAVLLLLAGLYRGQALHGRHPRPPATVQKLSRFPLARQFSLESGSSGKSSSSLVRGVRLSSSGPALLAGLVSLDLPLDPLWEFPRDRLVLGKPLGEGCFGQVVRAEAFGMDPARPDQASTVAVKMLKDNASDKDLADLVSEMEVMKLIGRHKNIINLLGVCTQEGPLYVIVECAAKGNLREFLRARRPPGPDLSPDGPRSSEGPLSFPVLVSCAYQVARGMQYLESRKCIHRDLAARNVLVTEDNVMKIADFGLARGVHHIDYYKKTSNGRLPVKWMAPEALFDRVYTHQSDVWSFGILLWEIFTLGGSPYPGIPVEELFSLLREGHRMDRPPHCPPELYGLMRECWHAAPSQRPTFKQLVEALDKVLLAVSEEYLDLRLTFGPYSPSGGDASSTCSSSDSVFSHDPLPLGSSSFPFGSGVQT

[13] = target: Serine/threonine-protein kinase WNK2 (Homo sapiens) (UniProt Q9Y3S1); experiment: Inhibition of tracer 1710 binding to recombinant human His-tagged WNK2 catalytic domain (166 to 489 residues) expressed in baculovirus expression system at 0.1 uM measured after 60 mins by Lanthascreen assay relative to control
Chain of Serine/threonine-protein kinase WNK2 (Homo sapiens) (Q9Y3S1 whole entry, the tested form may be a part): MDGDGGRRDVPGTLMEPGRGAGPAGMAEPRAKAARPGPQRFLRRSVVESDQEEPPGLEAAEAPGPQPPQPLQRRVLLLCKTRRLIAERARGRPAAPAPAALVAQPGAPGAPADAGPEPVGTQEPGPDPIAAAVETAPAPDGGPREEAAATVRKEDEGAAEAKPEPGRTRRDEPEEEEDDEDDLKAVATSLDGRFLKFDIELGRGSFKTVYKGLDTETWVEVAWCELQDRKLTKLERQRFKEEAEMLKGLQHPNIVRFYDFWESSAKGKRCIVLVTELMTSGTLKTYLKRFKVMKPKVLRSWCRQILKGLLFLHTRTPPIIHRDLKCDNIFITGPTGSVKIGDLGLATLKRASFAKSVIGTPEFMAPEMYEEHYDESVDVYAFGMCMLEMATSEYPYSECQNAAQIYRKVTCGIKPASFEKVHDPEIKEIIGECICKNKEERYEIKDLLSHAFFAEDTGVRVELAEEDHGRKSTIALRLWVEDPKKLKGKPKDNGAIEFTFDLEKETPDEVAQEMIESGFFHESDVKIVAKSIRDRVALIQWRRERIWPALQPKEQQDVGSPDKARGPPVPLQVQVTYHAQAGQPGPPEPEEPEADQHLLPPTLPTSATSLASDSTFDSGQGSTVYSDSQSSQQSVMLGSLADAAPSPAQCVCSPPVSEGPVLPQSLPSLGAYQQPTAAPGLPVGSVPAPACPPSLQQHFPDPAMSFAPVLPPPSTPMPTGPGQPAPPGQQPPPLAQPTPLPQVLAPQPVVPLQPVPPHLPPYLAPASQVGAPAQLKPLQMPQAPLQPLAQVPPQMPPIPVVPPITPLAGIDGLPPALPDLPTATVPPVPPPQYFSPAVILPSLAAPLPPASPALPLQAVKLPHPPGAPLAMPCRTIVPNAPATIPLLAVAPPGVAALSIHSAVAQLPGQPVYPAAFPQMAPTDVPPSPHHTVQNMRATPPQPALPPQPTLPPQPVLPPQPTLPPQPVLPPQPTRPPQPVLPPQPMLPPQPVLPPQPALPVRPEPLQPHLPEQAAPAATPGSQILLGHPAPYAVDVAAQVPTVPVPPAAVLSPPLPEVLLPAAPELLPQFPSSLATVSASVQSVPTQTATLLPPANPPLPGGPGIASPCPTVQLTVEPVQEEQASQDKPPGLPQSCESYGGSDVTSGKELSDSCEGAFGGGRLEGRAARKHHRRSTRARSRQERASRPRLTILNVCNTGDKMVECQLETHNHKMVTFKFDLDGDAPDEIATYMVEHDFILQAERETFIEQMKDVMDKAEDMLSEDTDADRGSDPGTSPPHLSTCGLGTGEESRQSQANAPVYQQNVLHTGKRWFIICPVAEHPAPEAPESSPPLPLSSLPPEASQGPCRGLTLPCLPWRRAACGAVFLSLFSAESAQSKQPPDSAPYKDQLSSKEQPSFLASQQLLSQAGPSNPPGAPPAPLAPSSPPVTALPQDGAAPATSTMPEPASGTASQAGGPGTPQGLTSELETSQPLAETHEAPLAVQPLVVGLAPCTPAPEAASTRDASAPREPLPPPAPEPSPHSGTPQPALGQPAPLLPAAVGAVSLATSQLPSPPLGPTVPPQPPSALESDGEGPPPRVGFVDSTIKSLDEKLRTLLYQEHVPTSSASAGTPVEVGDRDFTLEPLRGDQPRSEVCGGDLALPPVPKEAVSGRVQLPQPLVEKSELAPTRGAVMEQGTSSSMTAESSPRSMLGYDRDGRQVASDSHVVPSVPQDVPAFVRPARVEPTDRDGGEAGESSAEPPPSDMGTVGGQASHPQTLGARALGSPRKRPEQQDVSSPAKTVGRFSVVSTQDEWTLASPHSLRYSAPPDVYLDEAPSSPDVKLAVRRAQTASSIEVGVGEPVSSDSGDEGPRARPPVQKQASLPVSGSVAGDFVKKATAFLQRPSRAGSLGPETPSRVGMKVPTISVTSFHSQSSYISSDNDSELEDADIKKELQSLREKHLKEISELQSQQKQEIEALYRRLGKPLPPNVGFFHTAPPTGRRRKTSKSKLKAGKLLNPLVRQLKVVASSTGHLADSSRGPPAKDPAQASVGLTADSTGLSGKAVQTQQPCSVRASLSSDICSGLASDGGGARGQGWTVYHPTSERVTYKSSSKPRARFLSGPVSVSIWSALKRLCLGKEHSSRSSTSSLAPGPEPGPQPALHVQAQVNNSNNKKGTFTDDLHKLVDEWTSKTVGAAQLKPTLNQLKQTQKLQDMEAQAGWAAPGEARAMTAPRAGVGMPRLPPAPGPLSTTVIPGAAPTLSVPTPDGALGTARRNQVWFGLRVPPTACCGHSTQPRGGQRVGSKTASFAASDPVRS

[14] = target: Mitogen-activated protein kinase kinase kinase 10 (Homo sapiens) (UniProt Q02779); experiment: Inhibition of tracer 236 binding to recombinant full length human GST-tagged MLK2 expressed in baculovirus expression system at 0.1 uM measured after 60 mins by Lanthascreen assay
[15] = target: Cyclin-dependent kinase 13/Cyclin-K (Homo sapiens) (UniProt Q14004+O75909); experiment: Inhibition of tracer 236 binding to human GST/His-tagged CDK13/Cyclin K at 0.1 uM; format: protein-complex assay
[16] = target: Death-associated protein kinase 3 (Homo sapiens) (UniProt O43293); experiment: Inhibition of recombinant full length human GST-tagged ZIPK expressed in baculovirus expression system at 0.1 uM using serine/threonine-13 peptide as substrate incubated for 60 mins by Z'-LYTE assay relative to control
[17] = tested on: RAF proto-oncogene serine/threonine-protein kinase (Homo sapiens), P04049 [Y340D,Y341D]; experiment: Inhibition of recombinant human GST-tagged RAF1 Y340D Y341D mutant catalytic domain (306 to 648 residues) expressed in baculovirus expression system at 0.1 uM using serine/threonine-3 peptide as substrate incubated for 60 mins by Z'-LYTE assay relative to control
[18] = target: Tyrosine-protein kinase Fes/Fps (Homo sapiens) (UniProt P07332); experiment: Inhibition of recombinant full length human His-tagged FES (FPS) expressed in baculovirus expression system at 0.1 uM using tyrosine-1 peptide as substrate incubated for 60 mins by Z'-LYTE assay relative to control
[19] = target: Mitogen-activated protein kinase kinase kinase kinase 5 (Homo sapiens) (UniProt Q9Y4K4); experiment: Inhibition of recombinant full length human GST-tagged KHS1 expressed in baculovirus expression system at 0.1 uM using serine/threonine-7 peptide as substrate incubated for 60 mins by Z'-LYTE assay relative to control
[20] = target: TGF-beta receptor type-1 (Homo sapiens) (UniProt P36897); experiment: Inhibition of tracer 178 binding to recombinant human GST-tagged TGFBR1 catalytic domain (200 to 503 residues) expressed in baculovirus expression system at 0.1 uM measured after 60 mins by Lanthascreen assay
[21] = target: Protein-tyrosine kinase 6 (Homo sapiens) (UniProt Q13882); experiment: Inhibition of recombinant full length human His-tagged BRK expressed in baculovirus expression system at 0.1 uM using tyrosine-1 peptide as substrate incubated for 60 mins by Z'-LYTE assay relative to control
[22] = target: Serine/threonine-protein kinase Chk1 (Homo sapiens) (UniProt O14757); experiment: Inhibition of recombinant full length human His-tagged CHK1 expressed in baculovirus expression system at 0.1 uM using serine/threonine-19 peptide as substrate incubated for 60 mins by Z'-LYTE assay relative to control
[23] = target: Tyrosine-protein kinase Mer (Homo sapiens) (UniProt Q12866); experiment: Inhibition of recombinant human GST-tagged MER (578 to 872 residues) expressed in baculovirus expression system at 0.1 uM using tyrosine-2 peptide as substrate incubated for 60 mins by Z'-LYTE assay relative to control

Chain of MAP kinase-interacting serine/threonine-protein kinase 1 (Homo sapiens) (Q9BUB5 whole entry, looked up, the tested form may be a part): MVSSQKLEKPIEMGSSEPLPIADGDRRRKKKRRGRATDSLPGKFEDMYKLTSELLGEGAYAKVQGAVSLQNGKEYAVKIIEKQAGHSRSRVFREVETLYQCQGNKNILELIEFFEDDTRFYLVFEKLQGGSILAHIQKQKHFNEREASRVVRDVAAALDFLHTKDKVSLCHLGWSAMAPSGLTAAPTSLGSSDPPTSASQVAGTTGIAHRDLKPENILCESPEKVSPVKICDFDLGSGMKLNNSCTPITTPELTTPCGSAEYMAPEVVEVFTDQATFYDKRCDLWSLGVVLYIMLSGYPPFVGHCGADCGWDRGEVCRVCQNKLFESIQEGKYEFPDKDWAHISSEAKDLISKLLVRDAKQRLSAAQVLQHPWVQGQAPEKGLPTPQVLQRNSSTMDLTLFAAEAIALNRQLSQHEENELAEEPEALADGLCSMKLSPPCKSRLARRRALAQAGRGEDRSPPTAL

Compound	inhibition [1] [%]	inhibition [2] [%]	inhibition [3] [%]	inhibition [4] [%]	inhibition [5] [%]	inhibition [6] [%]	inhibition [7] [%]	inhibition [8] [%]	inhibition [9] [%]	inhibition [10] [%]	inhibition [11] [%]	inhibition [12] [%]	inhibition [13] [%]	inhibition [14] [%]	inhibition [15] [%]	inhibition [16] [%]	inhibition [17] [%]	inhibition [18] [%]	inhibition [19] [%]	inhibition [20] [%]	also measured
CCN1CC2(C1)CN(c1ccc(Nc3ncc(F)c(-c4cnn5c4[C@H](C)CCCC5)n3)nc1)C2	18	14	2.5	0	67.5	12.5	59	24.5	29.5	4	7	4	0.5	18	50	6	-0.5	19	22	16	inhibition [21]: 6.5%; inhibition [22]: 9%; inhibition [23]: 4%
CCN1CCN(Cc2ccc(Nc3ncc(F)c(-c4cc(F)c5nc(C)n(C(C)C)c5c4)n3)nc2)CC1 [ABEMACICLIB]	27	31.2	6	6	21.5	56	35.5	32.5	91.5	4.5	-0.5	11	2.7	10.6	38	54.5	0	11	27.3	10.9	inhibition [21]: 5%; inhibition [22]: -4.5%; inhibition [23]: 20.5%

Reference: ChEMBL document CHEMBL4385643, “Design of a brain-penetrant CDK4/6 inhibitor for glioblastoma” (Bioorg Med Chem Lett, 2019)
